In US5250683A, “Certain substituted taxanes and pharmaceutical compositions containing them” (Florida State University, priority 1992, dated 1993):

tested on: tubulin; assay: Tubulin binding assay (Tubulin Assay), method of Parness et al.; conditions: compared to taxol and taxotere

SMILES | Tubulin Assay Init. Peak | Tubulin Assay Rel. Rate
CC(=O)O[C@H]1C(=O)[C@@]2(C)[C@H]([C@H](OC(=O)c3ccccc3)[C@]3(O)C[C@H](OC(=O)[C@H](O)[C@@H](NC(=O)c4ccccc4)c4cccc5ccccc45)C(C)=C1C3(C)C)[C@]1(OC(C)=O)CO[C@@H]1C[C@@H]2O [Example 1, 3'-desphenyl-3'-(1-naphthyl) taxol] | 0 | 0
CC(=O)O[C@H]1C(=O)[C@@]2(C)[C@H]([C@H](OC(=O)c3ccccc3)[C@]3(O)C[C@H](OC(=O)[C@H](O)[C@@H](NC(=O)c4ccccc4)c4ccc5ccccc5c4)C(C)=C1C3(C)C)[C@]1(OC(C)=O)CO[C@@H]1C[C@@H]2O [Example 2, 3'-desphenyl-3'-(2-naphthyl) taxol] | 0 | 0
COc1ccc([C@H](NC(=O)c2ccccc2)[C@@H](O)C(=O)O[C@H]2C[C@@]3(O)[C@@H](OC(=O)c4ccccc4)[C@@H]4[C@]5(OC(C)=O)CO[C@@H]5C[C@H](O)[C@@]4(C)C(=O)[C@H](OC(C)=O)C(=C2C)C3(C)C)cc1 [Example 3, 3'-desphenyl-3'-(4-methoxyphenyl) taxol] | 59 | 87
CC(=O)O[C@H]1C(=O)[C@@]2(C)[C@H]([C@H](OC(=O)c3ccccc3)[C@]3(O)C[C@H](OC(=O)[C@H](O)[C@@H](NC(=O)c4ccccc4)c4ccc(Cl)cc4)C(C)=C1C3(C)C)[C@]1(OC(C)=O)CO[C@@H]1C[C@@H]2O [Example 4, 3'-desphenyl-3'-(4-chlorophenyl) taxol] | 94 | 97
CC(=O)O[C@H]1C(=O)[C@@]2(C)[C@H]([C@H](OC(=O)c3ccccc3)[C@]3(O)C[C@H](OC(=O)[C@H](O)[C@@H](NC(=O)c4ccccc4)c4ccc(Br)cc4)C(C)=C1C3(C)C)[C@]1(OC(C)=O)CO[C@@H]1C[C@@H]2O [Example 5, 3'-desphenyl-3'-(4-bromophenyl) taxol] | 5 | 74
CC(=O)O[C@H]1C(=O)[C@@]2(C)[C@H]([C@H](OC(=O)c3ccccc3)[C@]3(O)C[C@H](OC(=O)[C@H](O)[C@@H](NC(=O)c4ccccc4)c4ccc5c(c4)OCO5)C(C)=C1C3(C)C)[C@]1(OC(C)=O)CO[C@@H]1C[C@@H]2O [Example 6, 3'-desphenyl-3'-(3,4-methylenedioxyphenyl) taxol] | 53 | 85
COc1ccc([C@H](NC(=O)c2ccccc2)[C@@H](O)C(=O)O[C@H]2C[C@@]3(O)[C@@H](OC(=O)c4ccccc4)[C@@H]4[C@]5(OC(C)=O)CO[C@@H]5C[C@H](O)[C@@]4(C)C(=O)[C@H](OC(C)=O)C(=C2C)C3(C)C)cc1OC [Example 7, 3'-desphenyl-3'-(3,4-dimethoxyphenyl) taxol] | 11 | 26
CC(=O)O[C@H]1C(=O)[C@@]2(C)[C@H]([C@H](OC(=O)c3ccccc3)[C@]3(O)C[C@H](OC(=O)[C@H](O)[C@@H](NC(=O)c4ccccc4)c4ccc([N+](=O)[O-])cc4)C(C)=C1C3(C)C)[C@]1(OC(C)=O)CO[C@@H]1C[C@@H]2O [Example 8, 3'-desphenyl-3'-(4-nitrophenyl) taxol] | 114 | 105
CC(=O)O[C@H]1C(=O)[C@@]2(C)[C@H]([C@H](OC(=O)c3ccccc3)[C@]3(O)C[C@H](OC(=O)[C@H](O)[C@@H](NC(=O)c4ccccc4)c4ccc(F)cc4)C(C)=C1C3(C)C)[C@]1(OC(C)=O)CO[C@@H]1C[C@@H]2O [Example 9, 3'-desphenyl-3'-(4-fluorophenyl) taxol] | 100 | 
CC(=O)O[C@H]1C(=O)[C@@]2(C)[C@H]([C@H](OC(=O)c3ccccc3)[C@]3(O)C[C@H](OC(=O)[C@H](O)[C@@H](NC(=O)c4ccc(Cl)cc4)c4ccccc4)C(C)=C1C3(C)C)[C@]1(OC(C)=O)CO[C@@H]1C[C@@H]2O [Example 10, N-debenzoyl-N-(4-chlorobenzoyl) taxol] | 75 | 90
CC(=O)O[C@H]1C(=O)[C@@]2(C)[C@H]([C@H](OC(=O)c3ccccc3)[C@]3(O)C[C@H](OC(=O)[C@H](O)[C@@H](NC(=O)c4ccc(Br)cc4)c4ccccc4)C(C)=C1C3(C)C)[C@]1(OC(C)=O)CO[C@@H]1C[C@@H]2O [Example 11, N-debenzoyl-N-(4-bromobenzoyl) taxol] | 67 | 88
CC(=O)O[C@H]1C(=O)[C@@]2(C)[C@H]([C@H](OC(=O)c3ccccc3)[C@]3(O)C[C@H](OC(=O)[C@H](O)[C@@H](NC(=O)c4ccc(C)cc4)c4ccccc4)C(C)=C1C3(C)C)[C@]1(OC(C)=O)CO[C@@H]1C[C@@H]2O [Example 12, N-debenzoyl-N-(4-methylbenzoyl) taxol] | 107 | 110
CC(=O)O[C@H]1C(=O)[C@@]2(C)[C@H]([C@H](OC(=O)c3ccccc3)[C@]3(O)C[C@H](OC(=O)[C@H](O)[C@@H](NC(=O)c4ccc(C(C)(C)C)cc4)c4ccccc4)C(C)=C1C3(C)C)[C@]1(OC(C)=O)CO[C@@H]1C[C@@H]2O [Example 13, N-debenzoyl-N-(4-t-butylbenzoyl) taxol] | 67 | 85
COc1ccc(C(=O)N[C@@H](c2ccccc2)[C@@H](O)C(=O)O[C@H]2C[C@@]3(O)[C@@H](OC(=O)c4ccccc4)[C@@H]4[C@]5(OC(C)=O)CO[C@@H]5C[C@H](O)[C@@]4(C)C(=O)[C@H](OC(C)=O)C(=C2C)C3(C)C)cc1 [Example 14, N-debenzoyl-N-(4-methoxybenzoyl) taxol] | 95 | 99
CC(=O)O[C@H]1C(=O)[C@@]2(C)[C@H]([C@H](OC(=O)c3ccccc3)[C@]3(O)C[C@H](OC(=O)[C@H](O)[C@@H](NC(=O)c4ccc(F)cc4)c4ccc(F)cc4)C(C)=C1C3(C)C)[C@]1(OC(C)=O)CO[C@@H]1C[C@@H]2O [Example 15, N-debenzoyl-N-(4-fluorobenzoyl)-3'-desphenyl-3'-(4-fluorophenyl) taxol] | 89 | 98
CC(=O)O[C@H]1C(=O)[C@@]2(C)[C@H]([C@H](OC(=O)c3ccccc3)[C@]3(O)C[C@H](OC(=O)[C@H](O)[C@@H](NC(=O)c4ccc(F)cc4)c4ccccc4)C(C)=C1C3(C)C)[C@]1(OC(C)=O)CO[C@@H]1C[C@@H]2O [Example 16, N-debenzoyl-N-(4-fluorobenzoyl) taxol] | 66 | 90
CC(=O)O[C@H]1C(=O)[C@@]2(C)[C@H]([C@H](OC(=O)c3ccccc3)[C@]3(O)C[C@H](OC(=O)[C@H](O)[C@@H](NC(=O)c4ccc(C)cc4)c4ccc(Cl)cc4)C(C)=C1C3(C)C)[C@]1(OC(C)=O)CO[C@@H]1C[C@@H]2O [Example 17, N-debenzoyl-N-(4-methylbenzoyl)-3'-desphenyl-3'-(4-chlorophenyl) taxol] | 101 | 98
CC(=O)O[C@H]1C(=O)[C@@]2(C)[C@H]([C@H](OC(=O)c3ccccc3)[C@]3(O)C[C@H](OC(=O)[C@H](O)[C@@H](NC(=O)c4ccc(Cl)cc4)c4ccc(F)cc4)C(C)=C1C3(C)C)[C@]1(OC(C)=O)CO[C@@H]1C[C@@H]2O [Example 18, N-debenzoyl-N-(4-chlorobenzoyl)-3'-desphenyl-3'-(4-fluorophenyl) taxol] | 109 | 92
CC(=O)O[C@H]1C(=O)[C@@]2(C)[C@H]([C@H](OC(=O)c3ccccc3)[C@]3(O)C[C@H](OC(=O)[C@H](O)[C@@H](NC(=O)c4ccc(Br)cc4)c4ccc(F)cc4)C(C)=C1C3(C)C)[C@]1(OC(C)=O)CO[C@@H]1C[C@@H]2O [Example 19, N-debenzoyl-N-(4-bromobenzoyl)-3'-desphenyl-3'-(4-fluorophenyl) taxol] | 88 | 100
CC(=O)O[C@H]1C(=O)[C@@]2(C)[C@H]([C@H](OC(=O)c3ccccc3)[C@]3(O)C[C@H](OC(=O)[C@H](O)[C@@H](NC(=O)c4ccc(C)cc4)c4ccc(F)cc4)C(C)=C1C3(C)C)[C@]1(OC(C)=O)CO[C@@H]1C[C@@H]2O [Example 20, N-debenzoyl-N-(4-methylbenzoyl)-3'-desphenyl-3'-(4-fluorophenyl) taxol] | 85 | 98
COc1ccc([C@H](NC(=O)c2ccc(F)cc2)[C@@H](O)C(=O)O[C@H]2C[C@@]3(O)[C@@H](OC(=O)c4ccccc4)[C@@H]4[C@]5(OC(C)=O)CO[C@@H]5C[C@H](O)[C@@]4(C)C(=O)[C@H](OC(C)=O)C(=C2C)C3(C)C)cc1 [Example 21, N-debenzoyl-N-(4-fluorobenzoyl)-3'-desphenyl-3'-(4-methoxyphenyl) taxol] | 45 | 81
COc1ccc([C@H](NC(=O)c2ccc(C)cc2)[C@@H](O)C(=O)O[C@H]2C[C@@]3(O)[C@@H](OC(=O)c4ccccc4)[C@@H]4[C@]5(OC(C)=O)CO[C@@H]5C[C@H](O)[C@@]4(C)C(=O)[C@H](OC(C)=O)C(=C2C)C3(C)C)cc1 [Example 22, N-debenzoyl-N-(4-methylbenzoyl)-3'-desphenyl-3'-(4-methoxyphenyl) taxol] | 77 | 96
CC(=O)O[C@H]1C(=O)[C@@]2(C)[C@H]([C@H](OC(=O)c3ccccc3)[C@]3(O)C[C@H](OC(=O)[C@H](O)[C@@H](NC(=O)c4ccc(F)cc4)c4ccc(Cl)cc4)C(C)=C1C3(C)C)[C@]1(OC(C)=O)CO[C@@H]1C[C@@H]2O [Example 23, N-debenzoyl-N-(4-fluorobenzoyl)-3'-desphenyl-3'-(4-chlorophenyl) taxol] | 63 | 88
CC(=O)O[C@H]1C(=O)[C@@]2(C)[C@H]([C@H](OC(=O)c3ccccc3)[C@]3(O)C[C@H](OC(=O)[C@H](O)[C@@H](NC(=O)c4ccc(Cl)cc4)c4ccc(Cl)cc4)C(C)=C1C3(C)C)[C@]1(OC(C)=O)CO[C@@H]1C[C@@H]2O [Example 24, N-debenzoyl-N-(4-chlorobenzoyl)-3'-desphenyl-3'-(4-chlorophenyl) taxol] | 35 | 60
